From patent US8252337B2, “Charged mesoporous silica nanoparticle-based drug delivery system for controlled release and enhanced bioavailability” (National Health Research Institutes, priority 2008, dated 2012)

Assay: Saturated aqueous sulfasalazine solution
Assay type: physicochemical
Conditions: in H2O
Procedure: Sulfasalazine-Loaded MSN-TA Samples: A saturated aqueous sulfasalazine solution was prepared by dissolving 0.5 g of sulfasalazine in 1 L of H2O, stirred for 6 h, and filtered through a […] cellulose acetate membrane to remove the residual solids. […] Sulfasalazine was adsorbed onto MSN-TA samples by adding 10 mg of MSN-TA samples into 10 mL of the above saturated sulfasalazine solution. The mixture was stirred at 800 rpm for 4 h. The particles were then washed with deionized water and centrifuged for 20 min at 12 000 rpm. The supernatant was analyzed with a UV-Vis spectrometer. The amount of Sulfasalazine adsorbed onto nanoparticles was determined by measuring the decrease in absorption at 360 nm. The loading percentage of sulfasalazine onto MSN-TA-4 was about 1.7%.

O=C(O)c1cc(/N=N/c2ccc(S(=O)(=O)Nc3ccccn3)cc2)ccc1O [sulfasalazine]
pH of saturated sulfasalazine solution: 5.4
